Experimental data taken from ChEMBL document CHEMBL4673385, “Discovery of Potent Inhibitors of Streptococcus mutans Biofilm with Antivirulence Activity” (ACS Med Chem Lett, 2021).
Active and inactive are the calls of the source. The rule behind the calls is not given here.

How the values were obtained:
Streptococcus mutans [1] = assay: Antibiofilm activity against Streptococcus mutans UA159 assessed as inhibition of biofilm formation by serial dilution method; assay type: functional, organism-based; conditions: Streptococcus mutans, UA159; read-out: IC50
[2] = biological target: T1, Glucosyltransferase-SI (Streptococcus mutans serotype c (strain ATCC 700610 / UA159)) (UniProt P13470); assay: Inhibition of GtfC in Streptococcus mutans UA159 assessed as reduction in glucans level by Coomassie blue dye based SDS-PAGE analysis
T1 sequence (whole entry): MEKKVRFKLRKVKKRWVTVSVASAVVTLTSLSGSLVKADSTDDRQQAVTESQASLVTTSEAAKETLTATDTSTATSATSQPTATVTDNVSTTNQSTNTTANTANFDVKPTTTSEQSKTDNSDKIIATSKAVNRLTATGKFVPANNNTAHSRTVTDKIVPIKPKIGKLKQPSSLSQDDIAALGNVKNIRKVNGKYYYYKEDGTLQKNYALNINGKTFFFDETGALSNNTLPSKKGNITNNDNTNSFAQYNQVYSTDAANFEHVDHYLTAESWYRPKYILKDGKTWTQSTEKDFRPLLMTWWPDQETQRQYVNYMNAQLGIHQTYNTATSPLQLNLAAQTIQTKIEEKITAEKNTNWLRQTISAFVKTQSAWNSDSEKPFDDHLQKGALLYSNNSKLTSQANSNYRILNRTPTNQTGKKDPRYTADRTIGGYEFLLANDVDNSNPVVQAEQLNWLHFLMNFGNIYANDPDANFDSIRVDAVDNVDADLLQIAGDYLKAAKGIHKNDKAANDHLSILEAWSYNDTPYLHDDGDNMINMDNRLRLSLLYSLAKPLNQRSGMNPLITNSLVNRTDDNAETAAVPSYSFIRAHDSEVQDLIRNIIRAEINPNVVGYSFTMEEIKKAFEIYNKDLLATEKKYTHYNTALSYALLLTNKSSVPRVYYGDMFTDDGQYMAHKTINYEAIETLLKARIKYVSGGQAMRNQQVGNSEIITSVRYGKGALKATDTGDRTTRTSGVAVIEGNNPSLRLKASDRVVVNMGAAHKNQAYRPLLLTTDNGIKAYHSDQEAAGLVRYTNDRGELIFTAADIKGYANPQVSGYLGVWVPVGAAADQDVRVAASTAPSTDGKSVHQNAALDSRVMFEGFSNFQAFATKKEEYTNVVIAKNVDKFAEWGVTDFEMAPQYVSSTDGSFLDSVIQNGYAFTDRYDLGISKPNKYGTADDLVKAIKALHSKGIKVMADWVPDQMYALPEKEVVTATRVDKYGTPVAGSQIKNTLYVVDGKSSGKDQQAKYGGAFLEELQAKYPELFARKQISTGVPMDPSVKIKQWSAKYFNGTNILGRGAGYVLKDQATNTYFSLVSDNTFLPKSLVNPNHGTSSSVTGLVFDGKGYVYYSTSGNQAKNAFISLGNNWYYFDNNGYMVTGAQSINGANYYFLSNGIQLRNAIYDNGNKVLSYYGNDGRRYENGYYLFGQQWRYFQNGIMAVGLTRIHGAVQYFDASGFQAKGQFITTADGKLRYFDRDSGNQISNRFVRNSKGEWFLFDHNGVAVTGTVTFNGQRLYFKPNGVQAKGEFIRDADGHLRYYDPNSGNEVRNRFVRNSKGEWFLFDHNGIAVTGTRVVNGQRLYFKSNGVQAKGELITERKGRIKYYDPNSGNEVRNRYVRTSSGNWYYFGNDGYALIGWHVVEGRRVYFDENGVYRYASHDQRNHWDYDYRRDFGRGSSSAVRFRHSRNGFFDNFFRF

Streptococcus gordonii = assay: Bactericidal activity against Streptococcus gordonii DL1 assessed as reduction in bacterial growth at 100 uM after 24 hrs; assay type: functional
[3] = Toxicity in Fischer 344 rat infected with Streptococcus mutans UA159 assessed as reduction in body weight at 100 uM topically administered measured after 43 days; conditions: in vivo, topical_or_ocular, 1032 h, time 43 day
Streptococcus mutans [4] = assay: Antibiofilm activity against Streptococcus mutans UA159 infected in Fischer 344 rat assessed as buccal score at 100 uM topically administered measured after 43 days; assay type: functional, organism-based; conditions: time 43.0 day
Streptococcus mutans [5] = assay: Antibiofilm activity against Streptococcus mutans UA159 infected in Fischer 344 rat assessed as reduction in colony forming units at 100 uM topically administered measured after 43 days; assay type: functional, organism-based; conditions: time 43.0 day
Streptococcus mutans [6] = assay: Antibiofilm activity against Streptococcus mutans UA159 infected in Fischer 344 rat assessed as proximal surface score at 100 uM topically administered measured after 43 days; assay type: functional, organism-based; conditions: time 43.0 day
Streptococcus mutans [7] = assay: Antibiofilm activity against Streptococcus mutans UA159 infected in Fischer 344 rat assessed as sulcal score at 100 uM topically administered measured after 43 days; assay type: functional, organism-based; conditions: time 43.0 day
Streptococcus sanguinis = assay: Bactericidal activity against Streptococcus sanguinis SK36 assessed as reduction in bacterial growth at 100 uM after 24 hrs; assay type: functional
[8] = Inhibition of Gtf in Streptococcus mutans UA159 assessed as reduction in glucans level by Coomassie blue dye based SDS-PAGE analysis

IC50 (Streptococcus mutans [1]) [µM]	inhibition [2]	IC50 [8] [µM]	Compound	Activity (Streptococcus gordonii)	Activity [3]	Activity (Streptococcus mutans [4])	Activity (Streptococcus mutans [5])	Activity (Streptococcus mutans [6])	Activity (Streptococcus mutans [7])	Activity (Streptococcus sanguinis)
52.8	Active		CC(C)(C)OC(=O)NCc1ccccc1NC(=O)c1cnc2ccccc2c1							
15.3	Active		NC(=O)c1ccccc1NC(=O)c1cnc2ccccc2c1	inactive	Non-Toxic	Active	inactive	Active	Active	inactive
9.6	Active		COC(=O)c1ccc(NC(=O)c2cc3cc([N+](=O)[O-])ccc3s2)cc1							
	Active		O=C(c1ccc(F)cc1)c1ccc(-c2[nH]c(-c3ccc([N+](=O)[O-])cc3O)nc2-c2ccccc2)cc1							
51.5	Active		CC(C)(C)OC(=O)NCc1ccccc1NC(=O)c1cc2cc([N+](=O)[O-])ccc2s1							
8.6	Active		NC(=O)c1cccc(NC(=O)c2cnc3ccccc3c2)c1							
16.7	Active	10	NC(=O)c1ccccc1NC(=O)c1cc2cc([N+](=O)[O-])ccc2s1	inactive		Active	inactive	Active	Active	inactive
